Holding throughout (assay): microbe, parasite or virus in culture
Assay [1] relates to Methicillin-resistant S. aureus ATCC 43300. Conditions: ATCC 43300, 24 h. The protocol:
(§1) Antimicrobial activity of compounds was tested against a number of bacterial strains by broth microdilution (BMD) assay with MIC determination, including S. aureus (MSSA ATCC® 29213™, MRSA ATCC® 43300™, VISA NARSA NRS1, VISA NARSA NRS4), Streptococcus pneumoniae (MDR ATCC® 700677™) and Enterococcus faecium (MDR VanA ATCC® 51559™). ATCC strains were sourced from the American Type Culture Collection and NRS strains from NARSA (Network on Antimicrobial Resistance in S. aureus) via BEI Resources (www.beiresources.org). All compounds were prepared to 160 µg mL^−1 solution in water from a stock solution of 1 mM concentration.
[…] […] Standards ranged from 64 to 0.03 µg mL^−1 and compounds from 8 to 0.003 µg mL^−1 with final assay volumes of 100 µL per well. Gram-positive bacteria were cultured in Mueller Hinton broth (MHB) (Bactolaboratories, Cat. no. 211443) at 37 °C overnight. A sample of each culture was then diluted 40-fold in fresh MHB and incubated at 37 °C for 2–3 h. […] All the plates were covered and incubated at 37 °C for 24 h. MICs were the lowest concentration showing no visible growth.

Assay [2] concerns Multi-drug-resistant S. pneumoniae ATCC 700677. Conditions: ATCC 700677. The protocol:
as §1
(§2) The compounds, along with standard antibiotics were serially diluted twofold across the wells of 96-well non-binding surface (NBS) polystyrene plates (Corning 3641). […] Standards ranged from 64 to 0.03 µg mL^−1 and compounds from 8 to 0.003 µg mL^−1 with final assay volumes of 100 µL per well. Gram-positive bacteria were cultured in Mueller Hinton broth (MHB) (Bactolaboratories, Cat. no. 211443) at 37 °C overnight. A sample of each culture was then diluted 40-fold in fresh MHB and incubated at 37 °C for 2–3 h. […] All the plates were covered and incubated at 37 °C for 24 h. MICs were the lowest concentration showing no visible growth.

In assay [3] the test system is Vancomycin-intermediate S. aureus NRS1. Conditions: Vancomycin-intermediate NRS1. The protocol:
as §1, §2

Assay [4] has as its system Vancomycin-resistant (VanA) Enterococcus faecium ATCC 51559. Conditions: ATCC 51559. The protocol: as §1, §2

This note sets out measurements from publication PMC5750218, “Protein-inspired antibiotics active against vancomycin- and daptomycin-resistant bacteria” (Nature Communications, 2018).

In brackets after ≈: the same amount, converted by molar mass. Positions of bridges follow the written chain, without caps; N, C: chain ends. Residues, ends and D or L forms follow the SMILES beside them. Chains are numbered I, II in the order given. *: point of attachment. Myristoyl = CCCCCCCCCCCCCC(=O)* Bounds are passed on as bounds.

Consider `CNC(=O)[C@H](CCCCNC(=O)[C@H]1NC(=O)[C@H]2NC(=O)[C@H](NC(=O)[C@@H]3NC(=O)[C@H](CC(N)=O)NC(=O)[C@H](NC(=O)[C@@H](CC(C)C)NC)[C@H](O)c4ccc(c(Cl)c4)Oc4cc3cc(c4O[C@@H]3O[C@H](CO)[C@@H](O)[C@H](O)[C@H]3O[C@H]3C[C@](C)(N)[C@H](O)[C@H](C)O3)Oc3ccc(cc3Cl)[C@H]2O)c2ccc(O)c(c2)-c2c(O)cc(O)cc21)NC(=O)[C@H](CN)NC(=O)[C@H](CN)NC(=O)[C@H](CCCCNC(=O)c1ccc(Oc2ccccc2)cc1)NC(=O)c1ccc(Oc2ccccc2)cc1` [Compound 29, POB2K-Dap-Dap-K(Vancomycin)-NHMe], for which the “MIC MRSA” value in assay [1] came to 0.0045 µg/mL (≈ 0.00197 µM). In assay [2], the “MIC MDR S.P.” value amounted to 0.0085 µg/mL (≈ 0.00372 µM). Besides, the “MIC VISA” value in assay [3] amounted to 0.0925 µg/mL (≈ 0.0405 µM). In addition, the “MIC VRE” value in assay [4] was determined as 0.75 µg/mL (≈ 0.328 µM).

Take `CNC(=O)[C@H](CCCCNC(=O)[C@H]1NC(=O)[C@H]2NC(=O)[C@H](NC(=O)[C@@H]3NC(=O)[C@H](CC(N)=O)NC(=O)[C@H](NC(=O)[C@@H](CC(C)C)NC)[C@H](O)c4ccc(c(Cl)c4)Oc4cc3cc(c4O[C@@H]3O[C@H](CO)[C@@H](O)[C@H](O)[C@H]3O[C@H]3C[C@](C)(N)[C@H](O)[C@H](C)O3)Oc3ccc(cc3Cl)[C@H]2O)c2ccc(O)c(c2)-c2c(O)cc(O)cc21)NC(=O)[C@H](CCCN)NC(=O)[C@H](CCCN)NC(=O)[C@H](CCCCNC(=O)c1ccc(Oc2ccccc2)cc1)NC(=O)c1ccc(Oc2ccccc2)cc1` [Compound 34, POB2K-Orn-Orn-K(Vancomycin)-NHMe]: the “MIC MRSA” value in assay [1] is under 0.003 µg/mL. Also, in assay [2], the “MIC MDR S.P.” value is under 0.003 µg/mL. Also, the “MIC VISA” value in assay [3] was found to be 0.0185 µg/mL (≈ 0.00791 µM). Moreover, the “MIC VRE” value in assay [4] is 0.5 µg/mL (≈ 0.214 µM).

Regarding `CNC(=O)[C@H](CCCCNC(=O)[C@H]1NC(=O)[C@H]2NC(=O)[C@H](NC(=O)[C@@H]3NC(=O)[C@H](CC(N)=O)NC(=O)[C@H](NC(=O)[C@@H](CC(C)C)NC)[C@H](O)c4ccc(c(Cl)c4)Oc4cc3cc(c4O[C@@H]3O[C@H](CO)[C@@H](O)[C@H](O)[C@H]3O[C@H]3C[C@](C)(N)[C@H](O)[C@H](C)O3)Oc3ccc(cc3Cl)[C@H]2O)c2ccc(O)c(c2)-c2c(O)cc(O)cc21)NC(=O)[C@H](CCCCN)NC(=O)[C@@H](CCCCN)NC(=O)[C@H](CCCCNC(=O)c1ccc(Oc2ccccc2)cc1)NC(=O)c1ccc(Oc2ccccc2)cc1` [Compound 26], the “MIC MRSA” value in assay [1] was under 0.003 µg/mL. Moreover, the “MIC MDR S.P.” value in assay [2] was under 0.003 µg/mL. Further, the “MIC VISA” value in assay [3] is 0.19 µg/mL (≈ 0.0803 µM). In assay [4], the “MIC VRE” value was found to be 1.5 µg/mL (≈ 0.634 µM).

Turning to `CCCCCCCCCCCCCC(=O)N[C@@H](CCCCN)C(=O)N[C@@H](CCCCN)C(=O)N[C@@H](CCCCN)C(=O)N[C@@H](CSSC[C@H](NC(=O)[C@H](CCCCN)NC(=O)[C@H](CCCCN)NC(=O)[C@H](CCCCN)NC(=O)CCCCCCCCCCCCC)C(=O)O)C(=O)O` [Compound 15a, Myristoyl-KKKC-OH – disulphide dimer] (I: Myristoyl-KKKC-OH / II: Myristoyl-KKKC-OH; disulfide I:4-II:4), the “MIC MRSA” value in assay [1] is over 8 µg/mL. In assay [4], the “MIC VRE” value was over 8 µg/mL.

For `CNC(=O)[C@H](CCCCNC(=O)[C@H]1NC(=O)[C@H]2NC(=O)[C@H](NC(=O)[C@@H]3NC(=O)[C@H](CC(N)=O)NC(=O)[C@H](NC(=O)[C@@H](CC(C)C)NC)[C@H](O)c4ccc(c(Cl)c4)Oc4cc3cc(c4O[C@@H]3O[C@H](CO)[C@@H](O)[C@H](O)[C@H]3O[C@H]3C[C@](C)(N)[C@H](O)[C@H](C)O3)Oc3ccc(cc3Cl)[C@H]2O)c2ccc(O)c(c2)-c2c(O)cc(O)cc21)NC(=O)[C@H](CCN)NC(=O)[C@H](CCCCN)NC(=O)[C@H](CCCCNC(=O)c1ccc(Oc2ccccc2)cc1)NC(=O)c1ccc(Oc2ccccc2)cc1` [Compound 30, POB2K-K-Dab-K(Vancomycin)-NHMe], the “MIC MRSA” value in assay [1] was under 0.003 µg/mL. Further, the “MIC MDR S.P.” value in assay [2] is under 0.003 µg/mL. For the same molecule, in assay [3], the “MIC VISA” value was found to be 0.0925 µg/mL (≈ 0.0395 µM). Further, the “MIC VRE” value in assay [4] stood at 0.75 µg/mL (≈ 0.321 µM).

As for `CCCCCCCCCCCCCC(=O)NCC(=O)N[C@@H](CO)C(=O)N[C@@H](CO)C(=O)N[C@@H](CCCCN)C(=O)N[C@@H](CO)C(=O)N1CCC[C@H]1C(=O)N[C@@H](CO)C(=O)N[C@@H](CCCCN)C(=O)N[C@@H](CCCCN)C(=O)N[C@@H](CCCCN)C(=O)N1CCC[C@H]1C(=O)N[C@@H](CS)C(N)=O` [Compound 12a] (Myristoyl-GSSKSPSKKKPC-NH2), the “MIC MRSA” value in assay [1] was over 8 µg/mL. In addition, the “MIC VRE” value in assay [4] is over 8 µg/mL.

With `CNC(=O)[C@H](CCCCNC(=O)[C@H]1NC(=O)[C@H]2NC(=O)[C@H](NC(=O)[C@@H]3NC(=O)[C@H](CC(N)=O)NC(=O)[C@H](NC(=O)[C@@H](CC(C)C)NC)[C@H](O)c4ccc(c(Cl)c4)Oc4cc3cc(c4O[C@@H]3O[C@H](CO)[C@@H](O)[C@H](O)[C@H]3O[C@H]3C[C@](C)(N)[C@H](O)[C@H](C)O3)Oc3ccc(cc3Cl)[C@H]2O)c2ccc(O)c(c2)-c2c(O)cc(O)cc21)NC(=O)[C@H](CCCCN)NC(=O)[C@H](CCCN)NC(=O)[C@H](CCCCNC(=O)c1ccc(Oc2ccccc2)cc1)NC(=O)c1ccc(Oc2ccccc2)cc1` [Compound 33, POB2K-Orn-K-K(Vancomycin)-NHMe], the “MIC MRSA” value in assay [1] is under 0.003 µg/mL. Besides, in assay [2], the “MIC MDR S.P.” value worked out at 0.007 µg/mL (≈ 0.00297 µM). The “MIC VISA” value in assay [3] stood at 0.125 µg/mL (≈ 0.0531 µM). Further, in assay [4], the “MIC VRE” value worked out at 1.5 µg/mL (≈ 0.637 µM).

As for `CNC(=O)[C@H](CCCCNC(=O)[C@H]1NC(=O)[C@H]2NC(=O)[C@H](NC(=O)[C@@H]3NC(=O)[C@H](CC(N)=O)NC(=O)[C@H](NC(=O)[C@@H](CC(C)C)NC)[C@H](O)c4ccc(c(Cl)c4)Oc4cc3cc(c4O[C@@H]3O[C@H](CO)[C@@H](O)[C@H](O)[C@H]3O[C@H]3C[C@](C)(N)[C@H](O)[C@H](C)O3)Oc3ccc(cc3Cl)[C@H]2O)c2ccc(O)c(c2)-c2c(O)cc(O)cc21)NC(=O)[C@H](CCCCN)NC(=O)[C@H](CCN)NC(=O)[C@H](CCCCNC(=O)c1ccc(Oc2ccccc2)cc1)NC(=O)c1ccc(Oc2ccccc2)cc1` [Compound 31, POB2K-Dab-K-K(Vancomycin)-NHMe], the “MIC MRSA” value in assay [1] was under 0.003 µg/mL. The “MIC MDR S.P.” value in assay [2] is under 0.003 µg/mL. Further, the “MIC VISA” value in assay [3] came to 0.0925 µg/mL (≈ 0.0395 µM). Also, the “MIC VRE” value in assay [4] stood at 0.375 µg/mL (≈ 0.16 µM).

Regarding `CNC(=O)[C@H](CCCNC(=O)[C@H]1NC(=O)[C@H]2NC(=O)[C@H](NC(=O)[C@@H]3NC(=O)[C@H](CC(N)=O)NC(=O)[C@H](NC(=O)[C@@H](CC(C)C)NC)[C@H](O)c4ccc(c(Cl)c4)Oc4cc3cc(c4O[C@@H]3O[C@H](CO)[C@@H](O)[C@H](O)[C@H]3O[C@H]3C[C@](C)(N)[C@H](O)[C@H](C)O3)Oc3ccc(cc3Cl)[C@H]2O)c2ccc(O)c(c2)-c2c(O)cc(O)cc21)NC(=O)[C@H](CCCCN)NC(=O)[C@H](CCCCN)NC(=O)[C@H](CCCCNC(=O)c1ccc(Oc2ccccc2)cc1)NC(=O)c1ccc(Oc2ccccc2)cc1` [Compound 35, POB2K-KK-Orn(Vancomycin)-NHMe], the “MIC MRSA” value in assay [1] is under 0.003 µg/mL. For the same molecule, the “MIC MDR S.P.” value in assay [2] came out at 0.005 µg/mL (≈ 0.00212 µM). Moreover, in assay [3], the “MIC VISA” value is 0.25 µg/mL (≈ 0.106 µM). In assay [4], the “MIC VRE” value is 1.25 µg/mL (≈ 0.531 µM).

Regarding `CCCCCCCCCCCCCC(=O)NCC(=O)N[C@@H](CO)C(=O)N[C@@H](CO)C(=O)N[C@@H](CCCCN)C(=O)N[C@@H](CO)C(=O)N1CCC[C@H]1C(=O)N[C@@H](CO)C(=O)N[C@@H](CCCCN)C(=O)N[C@@H](CCCCN)C(=O)N[C@@H](CCCCN)C(=O)N[C@@H](CCCCN)C(=O)N[C@@H](CCCCN)C(=O)N[C@@H](CCCCN)C(=O)N1CCC[C@H]1C(=O)NCC(=O)N[C@@H](CC(=O)O)C(=O)N[C@@H](CS)C(N)=O` [Compound 8a] (Myristoyl-GSSKSPSKKKKKKPGDC-NH2), the “MIC MRSA” value in assay [1] was over 8 µg/mL. Also, the “MIC VRE” value in assay [4] is over 8 µg/mL.

In the case of `CCCCCCCCCCCCCC(=O)NCC(=O)N[C@@H](CO)C(=O)N[C@@H](CCCCN)C(=O)N[C@@H](CCCCN)C(=O)N[C@@H](CCCCN)C(=O)N[C@@H](CS)C(N)=O` [Compound 13a, Myristoyl-GSKKKC-NH 2] (Myristoyl-GSKKKC-NH2), in assay [1], the “MIC MRSA” value is over 8 µg/mL. Further, in assay [4], the “MIC VRE” value was over 8 µg/mL.

As for `CCCCCCCCCCCCCC(=O)NCC(=O)N[C@@H](CO)C(=O)N[C@@H](CCCCN)C(=O)N[C@@H](CCCCN)C(=O)N[C@@H](CCCCN)C(=O)N[C@@H](CS)C(=O)O` [Compound 14a, Myristoyl-GSKKKC-OH] (Myristoyl-GSKKKC-OH), in assay [1], the “MIC MRSA” value is over 8 µg/mL. Besides, in assay [4], the “MIC VRE” value is over 8 µg/mL.
